This is an account of results in publication PMC12560751 (RSC Advances, 2025).

Common to all, as to format: biochemical
For one assay, the target named is AChE (Homo sapiens, UniProt P22303). Briefly: Anticholinesterase activity, modified colorimetric Ellman method. The conditions noted are these: for inhibition at 100 µM / inhibition at 1000 µM: read-out: AChE % inhibition; for Selectivity and indexes: selective for AChE (over BChE). On the technique in general: Ellman's reagent forms a yellow product with free thiols.

Another assay concerns the target BChE (Homo sapiens, UniProt P06276). The assay is described as above. As to conditions: for inhibition at 100 µM / inhibition at 1000 µM: read-out: BChE % inhibition.
A further assay addresses T1, hMAO A (Homo sapiens, UniProt P21397).
T1 sequence (P21397 1-527): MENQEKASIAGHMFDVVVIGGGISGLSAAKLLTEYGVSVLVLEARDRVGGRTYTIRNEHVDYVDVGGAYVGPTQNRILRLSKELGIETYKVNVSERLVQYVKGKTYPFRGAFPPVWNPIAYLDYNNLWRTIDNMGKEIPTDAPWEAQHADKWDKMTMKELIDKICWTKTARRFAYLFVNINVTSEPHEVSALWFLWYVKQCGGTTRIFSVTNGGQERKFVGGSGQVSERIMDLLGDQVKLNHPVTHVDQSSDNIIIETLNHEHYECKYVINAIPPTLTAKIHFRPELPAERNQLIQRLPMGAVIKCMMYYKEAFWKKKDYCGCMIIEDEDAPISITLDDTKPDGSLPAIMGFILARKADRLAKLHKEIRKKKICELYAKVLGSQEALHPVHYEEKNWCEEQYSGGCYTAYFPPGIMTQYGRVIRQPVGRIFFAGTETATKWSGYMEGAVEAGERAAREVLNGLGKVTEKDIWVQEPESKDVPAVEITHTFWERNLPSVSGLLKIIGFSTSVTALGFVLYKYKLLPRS
Briefly: MAO A inhibition, fluorometric method. As to conditions: for inhibition at 100 µM / inhibition at 1000 µM: read-out: MAO A % inhibition.

A further assay addresses T2, recombinant hMAO B (Homo sapiens, UniProt P27338).
T2 sequence (P27338 1-520): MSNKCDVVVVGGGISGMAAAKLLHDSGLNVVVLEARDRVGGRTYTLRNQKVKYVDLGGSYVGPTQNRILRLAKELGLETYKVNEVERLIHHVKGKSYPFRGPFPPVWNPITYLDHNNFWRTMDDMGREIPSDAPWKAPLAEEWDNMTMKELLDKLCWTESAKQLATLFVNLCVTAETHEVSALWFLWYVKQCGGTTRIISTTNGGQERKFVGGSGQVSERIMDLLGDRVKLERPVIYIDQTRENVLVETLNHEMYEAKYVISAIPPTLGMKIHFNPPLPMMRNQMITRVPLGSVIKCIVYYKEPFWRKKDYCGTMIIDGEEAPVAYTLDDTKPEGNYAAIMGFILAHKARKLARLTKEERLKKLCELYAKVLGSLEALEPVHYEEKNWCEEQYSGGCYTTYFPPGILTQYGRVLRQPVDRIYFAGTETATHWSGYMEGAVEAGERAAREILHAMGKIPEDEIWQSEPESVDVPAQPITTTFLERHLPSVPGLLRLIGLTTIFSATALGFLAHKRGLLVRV
Briefly: MAO B inhibition, fluorometric method. As to conditions: for inhibition at 100 µM / inhibition at 1000 µM: read-out: MAO B % inhibition; for Selectivity and indexes: selective for MAO-B (over MAO A).

As a reminder, the IC50 is the point on the concentration scale where inhibition reaches its midpoint. A word on the inhibition: it is the share of the control response that was lost under treatment.

Chain of BChE (P06276 29-602, species assumed): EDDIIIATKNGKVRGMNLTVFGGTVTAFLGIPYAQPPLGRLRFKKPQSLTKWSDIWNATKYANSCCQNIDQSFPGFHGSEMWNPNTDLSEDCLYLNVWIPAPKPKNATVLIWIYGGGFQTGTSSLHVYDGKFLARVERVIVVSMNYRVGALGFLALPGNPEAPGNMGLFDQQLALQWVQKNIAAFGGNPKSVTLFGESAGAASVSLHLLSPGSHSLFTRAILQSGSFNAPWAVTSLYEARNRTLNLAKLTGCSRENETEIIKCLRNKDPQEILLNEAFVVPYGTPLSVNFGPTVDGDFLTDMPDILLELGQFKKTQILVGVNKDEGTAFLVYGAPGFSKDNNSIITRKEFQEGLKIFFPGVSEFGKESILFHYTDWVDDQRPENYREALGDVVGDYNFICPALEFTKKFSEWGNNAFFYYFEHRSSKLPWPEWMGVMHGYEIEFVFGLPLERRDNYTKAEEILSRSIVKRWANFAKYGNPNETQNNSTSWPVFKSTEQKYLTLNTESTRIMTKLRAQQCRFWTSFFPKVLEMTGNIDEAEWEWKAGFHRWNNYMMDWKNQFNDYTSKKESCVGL
Chain of AChE (P22303 32-614): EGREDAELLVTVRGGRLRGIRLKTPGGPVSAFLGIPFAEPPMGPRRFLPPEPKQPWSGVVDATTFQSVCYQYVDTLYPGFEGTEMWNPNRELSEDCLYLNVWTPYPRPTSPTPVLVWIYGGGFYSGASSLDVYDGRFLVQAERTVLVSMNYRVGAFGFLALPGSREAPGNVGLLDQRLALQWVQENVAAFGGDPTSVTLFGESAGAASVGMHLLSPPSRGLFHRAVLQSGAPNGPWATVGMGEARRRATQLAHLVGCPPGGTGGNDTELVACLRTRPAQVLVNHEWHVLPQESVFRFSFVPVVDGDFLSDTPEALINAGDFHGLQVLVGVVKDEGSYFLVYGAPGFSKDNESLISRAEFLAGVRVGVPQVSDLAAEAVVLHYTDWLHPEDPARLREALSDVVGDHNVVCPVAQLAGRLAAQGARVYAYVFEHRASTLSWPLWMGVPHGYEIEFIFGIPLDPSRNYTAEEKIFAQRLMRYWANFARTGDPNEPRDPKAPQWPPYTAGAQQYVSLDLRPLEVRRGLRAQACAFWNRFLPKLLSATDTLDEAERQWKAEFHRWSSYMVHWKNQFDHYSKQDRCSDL

Turning to `COc1ccc(C(=O)C=Cc2ccc(NC(=O)CN3CCN(C)CC3)cc2)cc1OC` [Compound 4a, N-(4-(3-(3,4-Dimethoxyphenyl)-3-oxoprop-1-en-1-yl)phenyl)-2-(4-methylpiperazin-1-yl)acetamide], the IC50 was 0.068 ± 0.003 µM on AChE; above 1000 µM on BChE; above 1000 µM on hMAO A; 0.274 ± 0.012 µM on recombinant hMAO B (MAO B IC50, tables); below 1 µM on recombinant hMAO B (MAO B IC50, text). Besides, the inhibition at 100 µM turned out to be 90.3 ± 1.86% on AChE, 24.6 ± 0.974% at BChE, 38.7 ± 1.06% on hMAO A and 80.5 ± 2.24% at recombinant hMAO B. Also, the inhibition at 1000 µM on AChE turned out to be 93.5 ± 3.16%; at BChE, 42.5 ± 1.85%; on hMAO A it was 47.7 ± 2.04%; on recombinant hMAO B, 84 ± 1.93%. The values for the Selectivity and indexes result at AChE and at recombinant hMAO B were “AChE/>1000” and “MAO-B/>1000”, respectively.

Consider `CCN1CCN(CC(=O)Nc2ccc(C=CC(=O)c3ccc(OC)c(OC)c3)cc2)CC1` [Compound 4b, N-(4-(3-(3,4-Dimethoxyphenyl)-3-oxoprop-1-en-1-yl)phenyl)-2-(4-ethylpiperazin-1-yl)acetamide], for which the IC50 was 0.093 ± 0.003 µM on AChE; above 1000 µM at BChE; above 100 µM against hMAO A; above 100 µM on recombinant hMAO B (MAO B IC50, tables). For the same compound, the inhibition at 100 µM was 88.7 ± 2.23% at AChE, 27 ± 0.877% on BChE, 31.2 ± 1.24% at hMAO A and 40.1 ± 1.97% on recombinant hMAO B. For the same compound, the inhibition at 1000 µM came to 92.6 ± 2.45% at AChE, 31.1 ± 1.03% at BChE, 53.1 ± 2.17% at hMAO A and 60.4 ± 2.27% at recombinant hMAO B. For the same compound, the Selectivity and indexes result on AChE is recorded as “AChE/>1000”.

On to `COc1ccc(C(=O)C=Cc2ccc(NC(=O)CN3CCN(C(C)C)CC3)cc2)cc1OC` [Compound 4c, N-(4-(3-(3,4-Dimethoxyphenyl)-3-oxoprop-1-en-1-yl)phenyl)-2-(4-isopropylpiperazin-1-yl)acetamide], for which the IC50 was above 100 µM at AChE; above 1000 µM against BChE; above 1000 µM on hMAO A; above 1000 µM at recombinant hMAO B (MAO B IC50, tables). Further, the inhibition at 100 µM turned out to be 48.2 ± 1.98% on AChE, 25.5 ± 1.1% at BChE, 39 ± 0.933% on hMAO A and 28.9 ± 1.02% at recombinant hMAO B. Besides, the inhibition at 1000 µM on AChE is 79.2 ± 3.03%; on BChE, 46 ± 1.92%; at hMAO A, 47.4 ± 0.836%; at recombinant hMAO B, 41.1 ± 0.941%.

For `C=CCN1CCN(CC(=O)Nc2ccc(C=CC(=O)c3ccc(OC)c(OC)c3)cc2)CC1` [Compound 4d, 2-(4-Allylpiperazin-1-yl)-N-(4-(3-(3,4-dimethoxyphenyl)-3-oxoprop-1-en-1-yl)phenyl)acetamide], the IC50 was above 100 µM against AChE; above 1000 µM against BChE; above 100 µM against hMAO A; above 1000 µM on recombinant hMAO B (MAO B IC50, tables). The inhibition at 100 µM on AChE was 40 ± 1.02%; at BChE, 20.1 ± 0.964%; at hMAO A, 41.4 ± 1.96%; at recombinant hMAO B, 30.1 ± 0.957%. The inhibition at 1000 µM is 80.7 ± 3.34% on AChE, 40.3 ± 1.21% at BChE, 55 ± 2.06% at hMAO A and 36.7 ± 1.04% on recombinant hMAO B. Further, the Selectivity and indexes result at hMAO A (selective for MAO-A (over MAO B)) was “MAO-A/>10”.

Regarding `C#CCN1CCN(CC(=O)Nc2ccc(C=CC(=O)c3ccc(OC)c(OC)c3)cc2)CC1` [Compound 4e, N-(4-(3-(3,4-Dimethoxyphenyl)-3-oxoprop-1-en-1-yl)phenyl)-2-(4-(prop-2-yn-1-yl)piperazin-1-yl)acetamide], the IC50 was above 100 µM against AChE; above 1000 µM against BChE; above 100 µM against hMAO A; above 100 µM at recombinant hMAO B (MAO B IC50, tables). For the same compound, the inhibition at 100 µM stood at 39.4 ± 1.32% at AChE, 21.9 ± 0.835% on BChE, 44.2 ± 1.87% at hMAO A and 39.3 ± 1.48% at recombinant hMAO B. In addition, the inhibition at 1000 µM came to 67.2 ± 2.11% at AChE, 38 ± 0.964% on BChE, 61.4 ± 1.95% on hMAO A and 78.2 ± 2.48% on recombinant hMAO B.

With `COc1ccc(C(=O)C=Cc2ccc(NC(=O)CN3CCN(C=O)CC3)cc2)cc1OC` [Compound 4f, N-(4-(3-(3,4-Dimethoxyphenyl)-3-oxoprop-1-en-1-yl)phenyl)-2-(4-formylpiperazin-1-yl)acetamide], the IC50 is 0.048 ± 0.002 µM at AChE; above 1000 µM at BChE; above 1000 µM at hMAO A; 0.137 ± 0.005 µM on recombinant hMAO B (MAO B IC50, tables); below 1 µM on recombinant hMAO B (MAO B IC50, text). In addition, the inhibition at 100 µM was 94.8 ± 3.96% on AChE, 24.3 ± 0.829% at BChE, 28.8 ± 0.861% on hMAO A and 88.6 ± 1.83% at recombinant hMAO B. For the same compound, the inhibition at 1000 µM on AChE stood at 96.8 ± 2.93%; at BChE, 31.7 ± 1.37%; on hMAO A, 40.8 ± 0.955%; at recombinant hMAO B, 90.7 ± 2.62%. In addition, the Selectivity and indexes entry at AChE is “AChE/>1000”; at recombinant hMAO B, “MAO-B/>1000”. For the same compound, at recombinant hMAO B (read-out: MAO B inhibition), the inhibition at 10 µM was 88.6 ± 1.83%.

With `COCCN1CCN(CC(=O)Nc2ccc(C=CC(=O)c3ccc(OC)c(OC)c3)cc2)CC1` [Compound 4h, N-(4-(3-(3,4-Dimethoxyphenyl)-3-oxoprop-1-en-1-yl)phenyl)-2-(4-(2-methoxyethyl)piperazin-1-yl)acetamide], the IC50 on AChE was 0.12 ± 0.005 µM; at BChE, above 1000 µM; against hMAO A, above 100 µM; on recombinant hMAO B (MAO B IC50, tables), above 100 µM. Besides, the inhibition at 100 µM at AChE came to 86.5 ± 1.35%; at BChE, 21.5 ± 0.874%; on hMAO A, 28.6 ± 1.05%; at recombinant hMAO B, 41.3 ± 0.916%. In addition, the inhibition at 1000 µM on AChE was 90.6 ± 2.75%; at BChE, 30.2 ± 1.13%; at hMAO A it was 59.9 ± 2.24%; on recombinant hMAO B it was 79.5 ± 2.86%. For the same compound, on AChE, the Selectivity and indexes entry was “AChE/>1000”.

As to `COc1ccc(C(=O)C=Cc2ccc(NC(=O)CN3CCN(CCCO)CC3)cc2)cc1OC` [Compound 4i, N-(4-(3-(3,4-Dimethoxyphenyl)-3-oxoprop-1-en-1-yl)phenyl)-2-(4-(3-hydroxypropyl)piperazin-1-yl)acetamide], the IC50 was 0.084 ± 0.003 µM against AChE; above 1000 µM on BChE; above 1000 µM against hMAO A; above 100 µM on recombinant hMAO B (MAO B IC50, tables). Besides, the inhibition at 100 µM worked out at 90.5 ± 2.83% on AChE, 23.6 ± 1.07% on BChE, 29.1 ± 0.962% on hMAO A and 47.4 ± 1.62% on recombinant hMAO B. In addition, the inhibition at 1000 µM on AChE was determined as 94.2 ± 2.06%; at BChE it was 39.6 ± 1.34%; on hMAO A it was 41.1 ± 2.06%; on recombinant hMAO B, 74.1 ± 2.42%. Further, the figures for the Selectivity and indexes entry at AChE and at recombinant hMAO B were “AChE/>1000” and “MAO-B/>10”, respectively.

For the compound `COc1ccc(C(=O)C=Cc2ccc(NC(=O)CN3CCN(CCN(C)C)CC3)cc2)cc1OC` [Compound 4j, N-(4-(3-(3,4-Dimethoxyphenyl)-3-oxoprop-1-en-1-yl)phenyl)-2-(4-(2-(dimethylamino)ethyl)piperazin-1-yl)acetamide], the IC50 on AChE is 0.043 ± 0.002 µM; at BChE, above 1000 µM; on hMAO A it was above 1000 µM; on recombinant hMAO B (MAO B IC50, tables) it was above 100 µM. The inhibition at 100 µM at AChE was 92.2 ± 3.48%; on BChE it was 28.4 ± 1.16%; on hMAO A it was 32.3 ± 1.14%; on recombinant hMAO B, 40.1 ± 1.06%. In addition, the inhibition at 1000 µM worked out at 94 ± 1.94% at AChE, 42.7 ± 2.06% at BChE, 47.7 ± 1.94% at hMAO A and 82.2 ± 3.03% at recombinant hMAO B. Besides, the Selectivity and indexes result on AChE is given as “AChE/>1000”; on recombinant hMAO B, “MAO-B/>10”.
